Patent EP2787958B1, “CHELIDONIUM MAJUS EXTRACTS AND THEIR USE IN THE TREATMENT OF SKIN DISORDERS AND PROMOTION OF SKIN REGENERATION” (priority 2011, dated 2013)
Where two headings read alike, the source gives them in different places.

How the values were obtained:
HDF cells [1] = assay: Summary of uses and toxic effects deduced from the cell assays (Table 1); format: cell-based, Human
Experimental: Antiradical (skin protective): this is deduced from the free radical scavenger effects.
Revitalizing: this is deduced from the increased mitochondrial dehydrogenase effect.
Cytoprotective, with regard to oxidative damage (antioxidant, anti-inflammatory and anti-ageing): this is deduced from antagonising the stimulation of IL-1β and/or IL-6 induced by 100 µM H2O2 and from the absence of changes in cell morphology similar to the ones due to cell senescence.
Wound healing: this is deduced from the effect of inhibiting the production of IL-1β and by the effect of stimulating cell proliferation under standard growth conditions.
Cytotoxicity: this is deduced from the effect of reducing mitochondrial dehydrogenase activity or from the presence of morphologies characteristic of cell senescence.
Irritation: this is deduced from the effect of increased production of IL-6 and/or IL-1β under standard growth conditions.
Said uses in the fields of medicine and cosmetics or the toxic effects of the substances of the invention at a given dosage, for 24 hours, are summarized in Table 1 below.

interleukin 6 (IL-6) = assay: Inflammatory cytokines in cell supernatant (Mosaic ELISA microarray): IL-6; format: cell-based, Human; details: for IL-6 ng/(ml* No. of cells from photo) ± SD: 24 hours; for IL-6 production (effect in words): 1-10 µM
Experimental: (§1) The inflammatory cytokines, CD40 ligand (CD40L), interferon γ (INF-γ), interleukin 1α (IL-1α), interleukin 1β (IL-1β), interleukin 6 (IL-6), interleukin 8 (IL-8), interleukin 17 (IL-17) and tumour necrosis factor α (TNF-α) were determined qualitatively and quantitatively. Each measurement was performed in duplicate using a Mosaic™ ELISA protein microarray assay system from R&D System in accordance with the supplier's instructions. Furthermore, with the aim of obtaining a correlation model between light signal intensity and cytokine concentration, a calibration curve using 6 concentrations was performed for each of them. Analysis of the data was performed using the dedicated Q-View™ Imager software package from Quansys Biosciences

[2] = test system: collagen produced by HDF cells; assay: Quantity of collagen produced by the cells (elution of Sirius Red)
[3] = Anti-radical activity (decay of the DPPH radical); format: biochemical; details: for Anti-radical (skin protective): 24 hours
Experimental: With regard to assays aimed at evaluating anti-radical activity, a chemical test was used where the decay of the diphenylpicrylhydrazyl (DPPH) radical is assessed in the absence or in the presence of the test substances. Indeed, the DPPH radical is used to test the ability of substances to act as free radical scavengers. DPPH in solution has a purple colour with a maximum absorbance peak at 517 nm which changes to yellow-colourless when this radical extracts a hydrogen atom from a radical scavenger to give rise to the reduced form DPPH-H. The assay has been conducted in quadruplicate in 96 well microplates (SARSTEDT Tissue Culture Plate 96-well flat bottom cell+). 50 µl of an ethanol solution of the test substance at 2X concentration and then 50 µl of a 200 µM solution of DPPH (MW 168,18, Aldrich 2,2-di(4-tert-octylphenyl)-1-picrylhydrazyl, free radical Lot# MKBF7574V Cat N° 257621-100 mg) have been added to each well of the microplate. A positive control consisting of 0.1 mM vitamin C and a negative control consisting of ethanol alone were included in each microplate. After 30 minutes from the addition of DPPH, photographs of the plates were taken (Canon PowerShot A610 5.0 Mpixels) and read spectrophotometrically at 530 nm.
Based on the analysis of the results reported in Table 9, some substances were selected for further characterisation of their anti-radical activity. For the selected substances, dose-activity curves were obtained and the IC50 value were computed using a non-linear regression model with the Hill equation at variable slope. Such substances had been selected due to both their anti-radical potential and the easiness of their isolation/production. The selection of substances was made in view of cosmetics applications. Moreover their activity on human dermal fibroblasts (HDF) is expected to be useful also for the development of dermatological medications. The selected substances are discussed below.

interleukin 1β (IL-1β) = assay: Inflammatory cytokines in cell supernatant (Mosaic ELISA microarray): IL-1β; format: cell-based, Human; details: for IL-1β ng/(ml* No. of cells from photo) ± SD: 24 hours; for IL-1β production (effect in words): 1-10 µM
Experimental: as §1

HDF cells [4] = assay: Evaluation of cell proliferation (counting of Sirius Red stained cells in photographs); details: 24 hours
[5] = test system: Human dermal fibroblasts (HDF); assay: Mitochondrial dehydrogenase activity (WST-1 formazan assay) in HDF cells; details: for Revitalizing agent: 24 hours; for activity at 1 µM / activity at 7.3 µM: Homo sapiens, Fibroblast, read-out: % mitochondrial dehydrogenase activity ± SD
[6] = Dose 1 µm (coptisine: 1 pm [sic]), 24 hours
[7] = Dose 1 µm (coptisine: 1 pm [sic])

Q: For `COc1ccc2c(c1OC)CN1CCc3cc4c(cc3C1=C2)OCO4` [dihydroberberine], which Cytotoxic (HDF cells [1]) is on record?
A: No

Q: And the “Anti-fibrotic (prevention of scar formation, also from acne)” value (HDF cells [1]; [6])?
A: Yes (↓collagen)

Q: And the “Cytoprotective (antioxidant, anti-inflammatory and anti-ageing; useful also in the treatment of acne)” value (HDF cells [1]; [6])?
A: No

Q: What about the Wound-healing (HDF cells [1]; [6]) of the same compound?
A: No

Q: And the “Anti-fibrotic (prevention of scar formation, also from acne)” value (HDF cells [1]; Dose 7.3 µm, 24 hours)?
A: Yes (↓collagen)

Q: What about the “Cytoprotective (antioxidant, anti-inflammatory and anti-ageing; useful also in the treatment of acne)” value (HDF cells [1]; Dose 7.3 µm, 24 hours) of the same compound?
A: No

Q: What about the Cytotoxic (HDF cells [1]; Dose 7.3 µm, 24 hours) of the same compound?
A: No

Q: What about the Irritant (HDF cells [1]; Dose 7.3 µm, 24 hours) of the same compound?
A: Yes (↑IL-6, ↑IL-1β)

Q: And the Wound-healing (HDF cells [1]; Dose 7.3 µm, 24 hours)?
A: No

Q: What about the “concentrations at which toxic (irritant) effects are shown” value (HDF cells [1]; exposure for 24 hours) of the same compound?
A: greater than or equal to 1 µM

Q: What about the Irritant (HDF cells [1]; human, 24 h, 1 µm) of the same compound?
A: Yes (↑IL-6, ↑IL-1β)

Q: What about the “IL-6 ng/(ml* No. of cells from photo) ± SD” value (interleukin 6 (IL-6); 1 µM, 34 ng/ml TGF-β1) of the same compound?
A: 512±25 ng/(ml* No. of cells from photo)

Q: And the “IL-6 ng/(ml* No. of cells from photo) ± SD” value (interleukin 6 (IL-6); 1 µM, 100 µM H2O2)?
A: 1328±2 ng/(ml* No. of cells from photo)

Q: And the “IL-6 ng/(ml* No. of cells from photo) ± SD” value (interleukin 6 (IL-6); 1 µM, Standard conditions)?
A: 541±24 ng/(ml* No. of cells from photo)

Q: What about the “IL-6 ng/(ml* No. of cells from photo) ± SD” value (interleukin 6 (IL-6); 7.3 µM, 34 ng/ml TGF-β1) of the same compound?
A: 704±60 ng/(ml* No. of cells from photo)

Q: And the “IL-6 ng/(ml* No. of cells from photo) ± SD” value (interleukin 6 (IL-6); 7.3 µM, 100 µM H2O2)?
A: 1685±444 ng/(ml* No. of cells from photo)

Q: What about the “IL-6 ng/(ml* No. of cells from photo) ± SD” value (interleukin 6 (IL-6); 7.3 µM, Standard conditions) of the same compound?
A: 534±39 ng/(ml* No. of cells from photo)

Q: What about the “IL-6 production (effect in words)” value (interleukin 6 (IL-6); 34 ng/ml TGF-β1) of the same compound?
A: tendency to antagonise the stimulation of IL-6 induced by TGF-β1

Q: What about the “IL-6 production (effect in words)” value (interleukin 6 (IL-6); 100 µM H2O2) of the same compound?
A: significant effects in modulating IL-6 production

Q: What about the “IL-6 production (effect in words)” value (interleukin 6 (IL-6); standard conditions) of the same compound?
A: significant effects in modulating IL-6 production

Q: What about the “collagen production (effect in words)” value ([2]; 1-10 µM (1 µM and 10 µM), 34 ng/ml TGF-β1) of the same compound?
A: antagonizes the stimulation of collagen induced by 34 ng/ml TGF-β1

Q: And the “collagen production (effect in words)” value ([2]; 1-10 µM (1 µM and 10 µM), 100 µM H2O2)?
A: stimulates collagen production in a dose-dependent manner

Q: And the “collagen production (effect in words)” value ([2]; 1-10 µM, standard conditions)?
A: stimulates collagen production in a dose-dependent manner

Q: And the “anti-radical effects (in words)” value ([3]; 1 mM)?
A: shows anti-radical effects

Q: And the “% DPPH activity” value ([3]; 1 mM, 30 minutes)?
A: 55%

Q: What about the “Anti-radical (skin protective)” value [3, 7] of the same compound?
A: Yes

Q: And the “Anti-radical (skin protective)” value ([3]; Dose 7.3 µm)?
A: Yes

Q: What about the IC50 ([3]; anti-radical activity, Hill equation) of the same compound?
A: 62 µM

Q: What about the “IL-1β ng/(ml* No. of cells from photo) ± SD” value (interleukin 1β (IL-1β); 1 µM, 34 ng/ml TGF-β1) of the same compound?
A: 99±10 ng/(ml* No. of cells from photo)

Q: What about the “IL-1β ng/(ml* No. of cells from photo) ± SD” value (interleukin 1β (IL-1β); 1 µM, 100 µM H2O2) of the same compound?
A: 164±1 ng/(ml* No. of cells from photo)

Q: And the “IL-1β ng/(ml* No. of cells from photo) ± SD” value (interleukin 1β (IL-1β); 1 µM, Standard conditions)?
A: 108±1 ng/(ml* No. of cells from photo)

Q: And the “IL-1β ng/(ml* No. of cells from photo) ± SD” value (interleukin 1β (IL-1β); 7.3 µM, 34 ng/ml TGF-β1)?
A: 129±1 ng/(ml* No. of cells from photo)

Q: What about the “IL-1β ng/(ml* No. of cells from photo) ± SD” value (interleukin 1β (IL-1β); 7.3 µM, 100 µM H2O2) of the same compound?
A: 212±18 ng/(ml* No. of cells from photo)

Q: What about the “IL-1β ng/(ml* No. of cells from photo) ± SD” value (interleukin 1β (IL-1β); 7.3 µM, Standard conditions) of the same compound?
A: 125±2 ng/(ml* No. of cells from photo)

Q: What about the “IL-1β production (effect in words)” value (interleukin 1β (IL-1β); 34 ng/ml TGF-β1) of the same compound?
A: antagonizes the stimulation of IL-1β induced by 34 ng/ml TGF-β1

Q: What about the “IL-1β production (effect in words)” value (interleukin 1β (IL-1β); 100 µM H2O2) of the same compound?
A: tendency to increase IL-1β production in a dose-dependent manner

Q: What about the “IL-1β production (effect in words)” value (interleukin 1β (IL-1β); standard conditions) of the same compound?
A: tendency to increase IL-1β production in a dose-dependent manner

Q: What about the “No. of cells from photo ± SD” value (HDF cells [4]; 1 µM, 34 ng/ml TGF-β1) of the same compound?
A: 232±13

Q: And the “No. of cells from photo ± SD” value (HDF cells [4]; 1 µM, 100 µM H2O2)?
A: 146±26

Q: And the “No. of cells from photo ± SD” value (HDF cells [4]; 1 µM, Standard conditions)?
A: 160±18

Q: What about the “No. of cells from photo ± SD” value (HDF cells [4]; 7.3 µM, 34 ng/ml TGF-β1) of the same compound?
A: 193±27

Q: What about the “No. of cells from photo ± SD” value (HDF cells [4]; 7.3 µM, 100 µM H2O2) of the same compound?
A: 108±3

Q: What about the “No. of cells from photo ± SD” value (HDF cells [4]; 7.3 µM, Standard conditions) of the same compound?
A: 129±13

Q: What about the “concentrations below which no significant effects on mitochondrial dehydrogenase activity are shown” value [5] of the same compound?
A: below 0.1 µM

Q: What about the “mitochondrial dehydrogenase activity (effect in words)” value ([5]; 100 µM) of the same compound?
A: reduced

Q: And the “mitochondrial dehydrogenase activity (effect in words)” value ([5]; 1 and 10 µM, 18 h and 42 h, more marked at 42 h)?
A: increased with respect to the control

Q: What about the Revitalizing agent [5, 7] of the same compound?
A: Yes

Q: And the Revitalizing agent ([5]; Dose 7.3 µm)?
A: Yes

Q: And the activity at 1 µM ([5]; 18 h)?
A: 131 ± 5.4%

Q: And the activity at 7.3 µM ([5]; 18 h)?
A: 128 ± 13.8%

Q: And the activity at 1 µM ([5]; 42 h)?
A: 143 ± 14.1%

Q: What about the activity at 7.3 µM ([5]; 42 h) of the same compound?
A: 137 ± 17.6%

Q: What about the activity at 1 µM ([5]; 46 h) of the same compound?
A: 121 ± 19.6%

Q: What about the activity at 7.3 µM ([5]; 46 h) of the same compound?
A: 192 ± 24.4%

Q: What about the “mitochondrial dehydrogenase activity (effect in words)” value ([5]; fibroblast cells, higher doses) of the same compound?
A: inhibit mitochondrial dehydrogenase activity

Q: What about the “mitochondrial dehydrogenase activity (effect in words)” value ([5]; fibroblast cells, low dosage) of the same compound?
A: stimulate mitochondrial dehydrogenase activity
